US9113629B2, “4-amino-6-(4-substituted-phenyl)-picolinates and 6-amino-2-(4-substituted-phenyl)-pyrimidine-4-carboxylates and their use as herbicides” (DOW AGROSCIENCES LLC, priority 2013, dated 2015)
Where two headings read alike, the source gives them in different places.

System: test plant species in Direct Seeded Rice
Assay: Postemergence herbicidal activity in direct seeded rice (Table 13)
Type: in vivo
Settings: for GR50 BRAPP / GR80 BRAPP / GR50 CYPSS / GR80 CYPSS / GR50 ECHSS / GR80 ECHSS / GR50 LEFSS / GR80 LEFSS / GR20 ORYSS / GR50 SCPJU / GR80 SCPJU / GR50 SEBEX / GR80 SEBEX: probit analysis; for GR20 ORYSS: ORYSS: Oryza sativa (crop); for pest or weed control at 35 g/ha / pest or weed control at 70 g/ha: post-emergence, 504 h; for pest or weed control at 35 g/ha: 35 g ai/ha; for pest or weed control at 70 g/ha: 70 g ai/ha
Description: Seeds or nutlets of the desired test plant species were planted in a soil matrix prepared by mixing a loam soil (43 percent silt, 19 percent clay, and 38 percent sand, with a pH of about 8.1 and an organic matter content of about 1.5 percent) and river sand in an 80 to 20 ratio. The soil matrix was contained in plastic pots with a surface area of 139.7 cm^2. When required to ensure good germination and healthy plants, a fungicide treatment and/or other chemical or physical treatment was applied. The plants were grown for 10-17 d in a greenhouse with an approximate 14-h photoperiod which was maintained at about 29° C. during the day and 26° C. during the night. Nutrients and water were added on a regular basis and supplemental lighting was provided with overhead metal halide 1000-Watt lamps as necessary. The plants were employed for testing when they reached the second or third true leaf stage. A weighed amount, determined by the highest rate to be tested, of each test compound was placed in 25 mL glass vials and dissolved in a volume of 97:3 v/v acetone-DMSO to obtain 12× stock solutions. […] The concentrated stock solutions were added to the spray solutions so that the final acetone and DMSO concentrations were 16.2% and 0.5%, respectively. Spray solutions were diluted to the appropriate final concentrations with the addition of 10 mL of an aqueous mixture of 1.5% (v/v) Agri-dex crop oil concentrate. […] Compound requirements are based upon a 12 mL application volume at a rate of 187 L/ha. Formulated compounds were applied to the plant material with an overhead Mandel track sprayer equipped with […] nozzles calibrated to deliver 187 L/ha over an application area of 0.503 square meters (m^2) at a spray height of 18 inches (43 cm) above average plant canopy height. Control plants were sprayed in the same manner with the solvent blank. The treated plants and control plants were placed in a greenhouse as described above and watered by sub-irrigation to prevent wash-off of the test compounds. After 20-22 days, the condition of the test plants, compared with that of the untreated plants, was determined visually and scored on a scale of 0 to 100 percent where 0 corresponds to no injury and 100 corresponds to complete kill. By applying the well-accepted probit analysis as described by J. Berkson in Journal of the American Statistical Society, 48, 565 (1953) and by D. Finney in “Probit Analysis” Cambridge University Press (1952), the above data can be used to calculate GR20, GR50, GR80 and GR90 values, which are defined as growth reduction factors that correspond to the effective dose of herbicide required to kill or control 20 percent, 50 percent, 80 percent or 90 percent, respectively, of a target plant.

[1] = BRAPP: broadleaf signalgrass, Brachiaria platyphylla
[2] = CYPSS: sedge (Cyperus difformis, esculentus, iria)
[3] = ECHSS: barnyardgrass (Echinochloa crus-galli), junglerice (Echinochloa colonum)
[4] = LEFSS: sprangletop (Leptochloa chinensis, Leptochloa dubia)
[5] = SCPJU: Japanese bulrush, Scirpus juncoides
[6] = SEBEX: hemp sesbania, Sesbania exaltata
[7] = BRAPP: broadleaf signalgrass, Brachiaria platyphylla, read-out: Visual Growth Reduction (%) 21 Days After Application BRAPP
[8] = CYPSS: sedge (Cyperus difformis, esculentus, iria), read-out: Visual Growth Reduction (%) 21 Days After Application CYPSS
[9] = ECHSS: barnyardgrass (Echinochloa crus-galli), junglerice (Echinochloa colonum), read-out: Visual Growth Reduction (%) 21 Days After Application ECHSS
[10] = LEFSS: sprangletop (Leptochloa chinensis, Leptochloa dubia), read-out: Visual Growth Reduction (%) 21 Days After Application LEFSS
[11] = ORYSS: Oryza sativa, read-out: Visual Growth Reduction (%) 21 Days After Application ORYSS
[12] = SCPJU: Japanese bulrush, Scirpus juncoides, read-out: Visual Growth Reduction (%) 21 Days After Application SCPJU
[13] = SEBEX: hemp sesbania, Sesbania exaltata, read-out: Visual Growth Reduction (%) 21 Days After Application SEBEX

Row | Compound | GR50 BRAPP [1] [g ai/ha] | GR80 BRAPP [1] [g ai/ha] | GR50 CYPSS [2] [g ai/ha] | GR80 CYPSS [2] [g ai/ha] | GR50 ECHSS [3] [g ai/ha] | GR80 ECHSS [3] [g ai/ha] | GR50 LEFSS [4] [g ai/ha] | GR80 LEFSS [4] [g ai/ha] | GR20 ORYSS [g ai/ha] | GR50 SCPJU [5] [g ai/ha] | GR80 SCPJU [5] [g ai/ha] | GR50 SEBEX [6] [g ai/ha] | GR80 SEBEX [6] [g ai/ha] | pest or weed control at 35 g/ha [7] [%] | pest or weed control at 70 g/ha [7] [%] | pest or weed control at 35 g/ha [8] [%] | pest or weed control at 70 g/ha [8] [%] | pest or weed control at 35 g/ha [9] [%] | pest or weed control at 70 g/ha [9] [%] | pest or weed control at 35 g/ha [10] [%] | other results
1 | COC(=O)c1nc(-c2ccc(Br)cc2F)cc(N)c1Cl [Compound 93] | 1 | 1 | 1 | 2 | 1 | 1 | 6 | 11 | 13 | 1 | 1 | 1 | 1 | 95 to 100 | 95 to 100 | 95 to 100 | 95 to 100 | 95 to 100 | 95 to 100 | 95 to 100 | pest or weed control at 70 g/ha [10]: 95 to 100%; pest or weed control at 35 g/ha [11]: 45 to 59%; pest or weed control at 70 g/ha [11]: 60 to 74%; pest or weed control at 35 g/ha [12]: 95 to 100%; pest or weed control at 70 g/ha [12]: 95 to 100%; pest or weed control at 35 g/ha [13]: 95 to 100%; pest or weed control at 70 g/ha [13]: 95 to 100%
2 | COC(=O)c1nc(-c2ccc(I)cc2)c(Cl)c(N)c1Cl [Compound 96] | 19 | 58 | 3 | 6 | 29 | 84 | 27 | 58 | 130 | 1 | 1 | 1 | 1 | 60 to 74 | 85 to 94 | 95 to 100 | 95 to 100 | 45 to 59 | 85 to 94 | 85 to 94 | pest or weed control at 70 g/ha [10]: 75 to 84%; pest or weed control at 35 g/ha [11]: 0 to 29%; pest or weed control at 70 g/ha [11]: 0 to 29%; pest or weed control at 35 g/ha [12]: 95 to 100%; pest or weed control at 70 g/ha [12]: 95 to 100%; pest or weed control at 35 g/ha [13]: 95 to 100%; pest or weed control at 70 g/ha [13]: 95 to 100%
3 | Nc1cc(-c2ccc(I)cc2F)nc(C(=O)O)c1Cl [Compound 124] | 4 | 8 | 1 | 1 | 2 | 6 | 7 | 16 | 1 | 1 | 1 | 1 | 1 | 95 to 100 | 95 to 100 | 95 to 100 | 95 to 100 | 95 to 100 | 95 to 100 | 95 to 100 | pest or weed control at 70 g/ha [10]: 95 to 100%; pest or weed control at 35 g/ha [11]: 60 to 74%; pest or weed control at 70 g/ha [11]: 85 to 94%; pest or weed control at 35 g/ha [12]: 95 to 100%; pest or weed control at 70 g/ha [12]: 95 to 100%; pest or weed control at 35 g/ha [13]: 95 to 100%; pest or weed control at 70 g/ha [13]: 95 to 100%
4 | Nc1c(Cl)c(C(=O)O)nc(-c2ccc(Br)cc2)c1Cl [Compound 125] | 46 | >70 | 4 | 10 | 40 | >70 | 43 | >70 | 0 | 1 | 1 | 1 | 1 | 45 to 59 | 60 to 74 | 95 to 100 | 95 to 100 | 45 to 59 | 60 to 74 | 45 to 59 | pest or weed control at 70 g/ha [10]: 60 to 74%; pest or weed control at 35 g/ha [11]: 0 to 29%; pest or weed control at 70 g/ha [11]: 0 to 29%; pest or weed control at 35 g/ha [12]: 95 to 100%; pest or weed control at 70 g/ha [12]: 95 to 100%; pest or weed control at 35 g/ha [13]: 95 to 100%; pest or weed control at 70 g/ha [13]: 95 to 100%
